{"source": "patent US20050222200A1", "about": "“AMIDE DERIVATIVES AS ION CHANNEL LIGANDS AND PHARMACEUTICAL COMPOSITIONS AND METHODS OF USING THE SAME” (Renovis, Inc., priority 2003, published 2005)", "data": [{"target": "VR1 (Rattus norvegicus, UniProt O35433)", "sequence (O35433 whole entry)": "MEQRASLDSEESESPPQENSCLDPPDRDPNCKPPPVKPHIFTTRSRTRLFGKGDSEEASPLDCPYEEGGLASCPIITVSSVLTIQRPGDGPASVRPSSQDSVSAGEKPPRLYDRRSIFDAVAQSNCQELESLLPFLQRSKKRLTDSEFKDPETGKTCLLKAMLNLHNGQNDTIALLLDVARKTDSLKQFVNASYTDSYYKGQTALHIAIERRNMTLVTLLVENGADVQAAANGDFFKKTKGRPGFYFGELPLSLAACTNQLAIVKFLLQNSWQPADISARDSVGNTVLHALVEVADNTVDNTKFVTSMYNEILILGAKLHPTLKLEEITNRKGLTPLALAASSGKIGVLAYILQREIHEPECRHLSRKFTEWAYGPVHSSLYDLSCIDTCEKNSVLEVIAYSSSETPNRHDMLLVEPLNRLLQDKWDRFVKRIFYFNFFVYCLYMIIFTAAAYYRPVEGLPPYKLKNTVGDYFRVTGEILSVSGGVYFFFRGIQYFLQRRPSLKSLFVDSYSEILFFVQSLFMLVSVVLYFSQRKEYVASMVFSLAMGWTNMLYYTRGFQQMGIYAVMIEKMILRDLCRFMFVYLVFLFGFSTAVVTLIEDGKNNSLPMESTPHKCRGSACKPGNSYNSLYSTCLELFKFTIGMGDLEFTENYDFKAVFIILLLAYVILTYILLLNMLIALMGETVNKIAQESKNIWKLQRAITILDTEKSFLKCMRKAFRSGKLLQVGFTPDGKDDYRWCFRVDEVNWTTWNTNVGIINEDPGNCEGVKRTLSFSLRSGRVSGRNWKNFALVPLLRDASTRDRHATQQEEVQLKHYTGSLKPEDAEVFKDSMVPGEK", "experiment": "Calcium imaging assay: inhibition of capsaicin induced calcium influx in DRG neurons (Fura2, microscope)", "type": "cell-based", "set-up": "endogenous in cells; host or cells: DRG neurons", "settings": "capsaicin stimulation; class symbols per legend", "description": "VR1 protein is a heat-gated cation channel that […] resulting in neuronal membrane depolarization and elevated intracellular calcium levels. Therefore the functional activity of compounds at the VR1 receptor may be determined by measuring changes in intracellular calcium levels in neurons such as the dorsal root ganglion.\nDRG neurons were grown on PDL coated 96-well black-walled plates, in the presence of DMEM medium containing 5% Penstrep, 5% Glutamax, 200 μg/ml hygromycin, 5 μg/ml blasticide and 10% heat inactivated FBS. Prior to assay, cells were loaded with 5 μg/ml Fura2 in normal saline solution at 37° C for 40 minutes. Cells were then washed with normal saline to remove dye before commencement of the experiment.\nThe plated neurons were transferred into a chamber on the stage of a Nikon eclipse TE300 microscope after which neurons were allowed to attain a stable fluorescence for about 10 minutes before beginning the experiment. The assay consists of two stages, a pretreatment phase followed by a treatment phase. First, a solution of the test compound was added from a multivalve perfusion system to the cells for 1 minute (pretreatment). Immediately following, capsaicin (250 nM) was added in the presence of the test compound (treatment) for a specific period between 20 and 60 seconds.\nFura2 was excited at […] to indicate relative calcium ion concentration. Changes in wavelength measurements were made throughout the course of the experiment. The fluorescence ratio was calculated by dividing fluorescence measured at 340 nm by that at 380 nM. Data was collected using Intelligent Imaging’s Slidebook software. All compounds that inhibited capsaicin induced calcium influx greater than 75% were considered positives.\nFluorescence reflecting calcium ion influx is reduced.", "values": [{"smiles": "CCN(CC)CCOC(=O)c1ccc(NC(=O)c2ccc(C#CC(C)(C)C)cc2)cc1", "note": "[Compound 363]", "inhibition of calcium ion influx induced by capsaicin stimulation": "+++ (compound exhibited 50-75% inhibition of calcium ion influx induced by capsaicin stimulation)"}, {"smiles": "COc1cccc(NC(=O)c2ccc(C#CC(C)(C)C)cc2)c1", "note": "[Compound 364]", "inhibition of calcium ion influx induced by capsaicin stimulation": "++++ (compound exhibited 75% or greater inhibition of calcium ion influx induced by capsaicin stimulation)"}, {"smiles": "CC(C)(C)C#Cc1ccc(C(=O)Nc2ccc(Cl)cc2)cc1", "note": "[Compound 365]", "inhibition of calcium ion influx induced by capsaicin stimulation": "+ (compound exhibited 0-25% inhibition of calcium ion influx induced by capsaicin stimulation)"}, {"smiles": "COc1ccc(NC(=O)c2ccc(C#CC(C)(C)C)cc2)cc1Cl", "note": "[Compound 366]", "inhibition of calcium ion influx induced by capsaicin stimulation": "++ (compound exhibited 25-50% inhibition of calcium ion influx induced by capsaicin stimulation)"}, {"smiles": "CC(C)(C)C#Cc1ccc(C(=O)Nc2ccc(C(F)(F)F)cc2)cc1", "note": "[Compound 367]", "inhibition of calcium ion influx induced by capsaicin stimulation": "++ (compound exhibited 25-50% inhibition of calcium ion influx induced by capsaicin stimulation)"}, {"smiles": "CC(C)(C)C#Cc1ccc(C(=O)Nc2ccc(Cl)c(C(F)(F)F)c2)cc1", "note": "[Compound 368]", "inhibition of calcium ion influx induced by capsaicin stimulation": "++++ (compound exhibited 75% or greater inhibition of calcium ion influx induced by capsaicin stimulation)"}, {"smiles": "COc1cc(NC(=O)c2ccc(C#CC(C)(C)C)cc2)cc(C(F)(F)F)c1", "note": "[Compound 372]", "inhibition of calcium ion influx induced by capsaicin stimulation": "++++ (compound exhibited 75% or greater inhibition of calcium ion influx induced by capsaicin stimulation)"}, {"smiles": "CC(C)(C)C#Cc1ccc(C(=O)Nc2ccc3c(c2)OCCO3)cc1", "note": "[Compound 373]", "inhibition of calcium ion influx induced by capsaicin stimulation": "++++ (compound exhibited 75% or greater inhibition of calcium ion influx induced by capsaicin stimulation)"}, {"smiles": "CC(C)(C)C#Cc1ccc(C(=O)Nc2cccc(C(F)(F)F)c2)cc1", "note": "[Compound 374]", "inhibition of calcium ion influx induced by capsaicin stimulation": "++++ (compound exhibited 75% or greater inhibition of calcium ion influx induced by capsaicin stimulation)"}, {"smiles": "CC(C)Oc1cccc(NC(=O)c2ccc(C#CC(C)(C)C)cc2)c1", "note": "[Compound 376]", "inhibition of calcium ion influx induced by capsaicin stimulation": "+++ (compound exhibited 50-75% inhibition of calcium ion influx induced by capsaicin stimulation)"}, {"smiles": "CC(C)(C)C#Cc1ccc(C(=O)Nc2ccc(S(C)(=O)=O)cc2)cc1", "note": "[Compound 377]", "inhibition of calcium ion influx induced by capsaicin stimulation": "++++ (compound exhibited 75% or greater inhibition of calcium ion influx induced by capsaicin stimulation)"}, {"smiles": "CC(C)(C)C#Cc1ccc(C(=O)Nc2cccc3cnccc23)cc1", "note": "[Compound 378]", "inhibition of calcium ion influx induced by capsaicin stimulation": "++++ (compound exhibited 75% or greater inhibition of calcium ion influx induced by capsaicin stimulation)"}, {"smiles": "CC(C)(C)C#Cc1ccc(C(=O)Nc2cnc3ccccc3c2)cc1", "note": "[Compound 379]", "inhibition of calcium ion influx induced by capsaicin stimulation": "++++ (compound exhibited 75% or greater inhibition of calcium ion influx induced by capsaicin stimulation)"}, {"smiles": "CCN(CC)c1ccc(NC(=O)c2ccc(C#CC(C)(C)C)cc2)cc1", "note": "[Compound 380]", "inhibition of calcium ion influx induced by capsaicin stimulation": "++ (compound exhibited 25-50% inhibition of calcium ion influx induced by capsaicin stimulation)"}, {"smiles": "CC(C)(C)C#Cc1ccc(C(=O)Nc2ccc(Br)cn2)cc1", "note": "[Compound 382]", "inhibition of calcium ion influx induced by capsaicin stimulation": "++ (compound exhibited 25-50% inhibition of calcium ion influx induced by capsaicin stimulation)"}, {"smiles": "CC(C)(C)C#Cc1ccc(C(=O)Nc2ccc(C(F)(F)F)cn2)cc1", "note": "[Compound 383]", "inhibition of calcium ion influx induced by capsaicin stimulation": "+++ (compound exhibited 50-75% inhibition of calcium ion influx induced by capsaicin stimulation)"}, {"smiles": "CC(C)(C)C#Cc1ccc(C(=O)Nc2ccc(Cl)nc2)cc1", "note": "[Compound 384]", "inhibition of calcium ion influx induced by capsaicin stimulation": "++++ (compound exhibited 75% or greater inhibition of calcium ion influx induced by capsaicin stimulation)"}, {"smiles": "COc1ccc(NC(=O)c2ccc(C#CC(C)(C)C)cc2)cn1", "note": "[Compound 385]", "inhibition of calcium ion influx induced by capsaicin stimulation": "++++ (compound exhibited 75% or greater inhibition of calcium ion influx induced by capsaicin stimulation)"}, {"smiles": "Cn1ccc2cc(NC(=O)c3ccc(C#CC(C)(C)C)cc3)ccc21", "note": "[Compound 387]", "inhibition of calcium ion influx induced by capsaicin stimulation": "++++ (compound exhibited 75% or greater inhibition of calcium ion influx induced by capsaicin stimulation)"}, {"smiles": "COc1cccc(NC(=O)c2ccc(/C=C/C(F)(F)F)cc2)c1", "note": "[Compound 389]", "inhibition of calcium ion influx induced by capsaicin stimulation": "++++ (compound exhibited 75% or greater inhibition of calcium ion influx induced by capsaicin stimulation)"}, {"smiles": "O=C(Nc1ccc(Cl)cc1)c1ccc(/C=C/C(F)(F)F)cc1", "note": "[Compound 390]", "inhibition of calcium ion influx induced by capsaicin stimulation": "++ (compound exhibited 25-50% inhibition of calcium ion influx induced by capsaicin stimulation)"}, {"smiles": "COc1ccc(NC(=O)c2ccc(/C=C/C(F)(F)F)cc2)cc1Cl", "note": "[Compound 391]", "inhibition of calcium ion influx induced by capsaicin stimulation": "+ (compound exhibited 0-25% inhibition of calcium ion influx induced by capsaicin stimulation)"}, {"smiles": "O=C(Nc1ccc(C(F)(F)F)cc1)c1ccc(/C=C/C(F)(F)F)cc1", "note": "[Compound 392]", "inhibition of calcium ion influx induced by capsaicin stimulation": "+ (compound exhibited 0-25% inhibition of calcium ion influx induced by capsaicin stimulation)"}, {"smiles": "CC(C)c1ccc(NC(=O)c2ccc(/C=C/C(F)(F)F)cc2)cc1", "note": "[Compound 394]", "inhibition of calcium ion influx induced by capsaicin stimulation": "++ (compound exhibited 25-50% inhibition of calcium ion influx induced by capsaicin stimulation)"}, {"smiles": "CCCCc1ccc(NC(=O)c2ccc(/C=C/C(F)(F)F)cc2)cc1", "note": "[Compound 395]", "inhibition of calcium ion influx induced by capsaicin stimulation": "+ (compound exhibited 0-25% inhibition of calcium ion influx induced by capsaicin stimulation)"}, {"smiles": "O=C(Nc1ccc2c(c1)OCCO2)c1ccc(/C=C/C(F)(F)F)cc1", "note": "[Compound 397]", "inhibition of calcium ion influx induced by capsaicin stimulation": "+++ (compound exhibited 50-75% inhibition of calcium ion influx induced by capsaicin stimulation)"}, {"smiles": "O=C(Nc1cccc(C(F)(F)F)c1)c1ccc(/C=C/C(F)(F)F)cc1", "note": "[Compound 398]", "inhibition of calcium ion influx induced by capsaicin stimulation": "++++ (compound exhibited 75% or greater inhibition of calcium ion influx induced by capsaicin stimulation)"}, {"smiles": "O=C(Nc1ccc(OC(F)(F)F)cc1)c1ccc(/C=C/C(F)(F)F)cc1", "note": "[Compound 399]", "inhibition of calcium ion influx induced by capsaicin stimulation": "++++ (compound exhibited 75% or greater inhibition of calcium ion influx induced by capsaicin stimulation)"}, {"smiles": "COc1ccc(NC(=O)c2ccc(/C=C/C(F)(F)F)cc2)cn1", "note": "[Compound 406]", "inhibition of calcium ion influx induced by capsaicin stimulation": "++ (compound exhibited 25-50% inhibition of calcium ion influx induced by capsaicin stimulation)"}, {"smiles": "CC(C)(C)C#Cc1ccc(C(=O)Nc2cccc(S(C)(=O)=O)c2)cn1", "note": "[Compound 411]", "inhibition of calcium ion influx induced by capsaicin stimulation": "++++ (compound exhibited 75% or greater inhibition of calcium ion influx induced by capsaicin stimulation)"}, {"smiles": "CC(C)(C)C#Cc1ccc(C(=O)Nc2cccc(S(C)(=O)=O)c2)cc1", "note": "[Compound 412]", "inhibition of calcium ion influx induced by capsaicin stimulation": "++++ (compound exhibited 75% or greater inhibition of calcium ion influx induced by capsaicin stimulation)"}, {"smiles": "CCN(CC)CCOC(=O)c1ccc(NC(=O)c2ccc(C#CC(C)(C)C)nc2)cc1", "note": "[Compound 413]", "inhibition of calcium ion influx induced by capsaicin stimulation": "+ (compound exhibited 0-25% inhibition of calcium ion influx induced by capsaicin stimulation)"}, {"smiles": "COc1cccc(NC(=O)c2ccc(C#CC(C)(C)C)nc2)c1", "note": "[Compound 414]", "inhibition of calcium ion influx induced by capsaicin stimulation": "++++ (compound exhibited 75% or greater inhibition of calcium ion influx induced by capsaicin stimulation)"}, {"smiles": "COc1ccc(NC(=O)c2ccc(C#CC(C)(C)C)nc2)cc1Cl", "note": "[Compound 416]", "inhibition of calcium ion influx induced by capsaicin stimulation": "++ (compound exhibited 25-50% inhibition of calcium ion influx induced by capsaicin stimulation)"}, {"smiles": "CC(C)(C)C#Cc1ccc(C(=O)Nc2ccc(C(F)(F)F)cc2)cn1", "note": "[Compound 417]", "inhibition of calcium ion influx induced by capsaicin stimulation": "++++ (compound exhibited 75% or greater inhibition of calcium ion influx induced by capsaicin stimulation)"}, {"smiles": "CC(C)(C)C#Cc1ccc(C(=O)Nc2ccc(Cl)c(C(F)(F)F)c2)cn1", "note": "[Compound 418]", "inhibition of calcium ion influx induced by capsaicin stimulation": "++++ (compound exhibited 75% or greater inhibition of calcium ion influx induced by capsaicin stimulation)"}, {"smiles": "CC(C)(C)C#Cc1ccc(C(=O)Nc2ccc(C(C)(C)C)cc2)cn1", "note": "[Compound 419]", "inhibition of calcium ion influx induced by capsaicin stimulation": "++++ (compound exhibited 75% or greater inhibition of calcium ion influx induced by capsaicin stimulation)"}, {"smiles": "CC(C)c1ccc(NC(=O)c2ccc(C#CC(C)(C)C)nc2)cc1", "note": "[Compound 420]", "inhibition of calcium ion influx induced by capsaicin stimulation": "+++ (compound exhibited 50-75% inhibition of calcium ion influx induced by capsaicin stimulation)"}, {"smiles": "CCCCc1ccc(NC(=O)c2ccc(C#CC(C)(C)C)nc2)cc1", "note": "[Compound 421]", "inhibition of calcium ion influx induced by capsaicin stimulation": "++ (compound exhibited 25-50% inhibition of calcium ion influx induced by capsaicin stimulation)"}, {"smiles": "COc1cc(NC(=O)c2ccc(C#CC(C)(C)C)nc2)cc(C(F)(F)F)c1", "note": "[Compound 422]", "inhibition of calcium ion influx induced by capsaicin stimulation": "++++ (compound exhibited 75% or greater inhibition of calcium ion influx induced by capsaicin stimulation)"}, {"smiles": "CC(C)(C)C#Cc1ccc(C(=O)Nc2ccc3c(c2)OCCO3)cn1", "note": "[Compound 423]", "inhibition of calcium ion influx induced by capsaicin stimulation": "++++ (compound exhibited 75% or greater inhibition of calcium ion influx induced by capsaicin stimulation)"}]}]}
